Measured values published in article PMC9571264 (Molecules, 2022).
≈ marks a conversion by molar mass, not a printed value. Read-outs that look alike come from different tables or passages of the source.

Assays:
Lung Cancer A549 = assay: MTT cytotoxicity assay, A549; assay type: cell-based; settings: Homo sapiens, 48 h, read-out: IC50 (µM) ± SEM, Lung Cancer A549
Protocol: (§1) Cytotoxic activities of the synthesized derivatives were screened against leukemia (HL60), liver (HepG2), breast (MCF-7), and lung (A549) cancer cell lines and non-cancerous THLE2 and WISH cells at different concentrations [0.01–100 µM] for 48 h using the MTT assay (Table 1).
(§2) Human promyelocytic leukemia ”HL-60”, human hepatocellular carcinoma “HepG2”, human breast cancer “MCF-7”, human lung cancer “A549” cell lines, and two normal cell lines, THLE-2 as normal adult liver epithelial cells and WISH as normal epithelial cells, were obtained from American Type Culture Collection “Rockville, MD, USA”.
(§3) According to the manufacturer’s protocol, the cells were seeded in 96-well plates at a concentration of 5 × 10^4 cells per well (200 µL). Different concentrations of the tested compounds were used to test the cytotoxicity. […] A non-linear regression of curve fit was used to calculate the IC50.

Liver Cancer HepG2 = assay: MTT cytotoxicity assay, HepG2; assay type: cell-based, human; settings: read-out: IC50 (µM) ± SEM, Liver Cancer HepG2
Protocol: as §1, §2, §3

Leukemia Cancer HL60 = assay: MTT cytotoxicity assay, HL60; assay type: cell-based; settings: Homo sapiens, HL-60, 48 h, read-out: IC50 (µM) ± SEM, Leukemia Cancer HL60
Protocol: as §1, §2, §3

Breast Cancer MCF-7 = assay: MTT cytotoxicity assay, MCF-7; assay type: cell-based; settings: Homo sapiens, MCF7, 48 h, read-out: IC50 (µM) ± SEM, Breast Cancer MCF-7
Protocol: as §1, §2, §3

Normal Liver THLE2 = assay: MTT cytotoxicity assay, normal THLE2; assay type: cell-based; settings: Homo sapiens, THLE-2, 48 h, read-out: IC50 (µM) ± SEM, Normal Liver THLE2
Protocol: as §1, §2, §3

HepG2 [1] = settings: ref [37]; cited from earlier work
colon cancer HCC-2998 = system: colon cancer HCC-2998; set-up: method as in PMID 21439691; settings: ref [39]; cited from earlier work
leukemia CCRF-CEM = system: leukemia CCRF-CEM; set-up: method as in PMID 21439691; settings: ref [39]; cited from earlier work
[2] = system: non-small-cell lung cancer HOP-92; set-up: method as in PMID 21439691; settings: ref [39]; cited from earlier work
[3] = system: promyelocytic leukemia cell line (HL60); set-up: method as in PMID 19322800; settings: ref [38]; cited from earlier work
HepG2 [4] = system: HepG2; set-up: method as in PMID 24148965, PMID 26890810; settings: ref [41],[43]; read-out: IC50 on HepG2 (apoptotic effect); cited from earlier work

SMILES: Cc1cc(=O)oc2cc(O)ccc12 [Compound 3, 7-Hydroxy-4-methylcoumarin]
- IC50 (Lung Cancer A549): 16.5 ± 1.98 µM
- IC50 (Liver Cancer HepG2; Homo sapiens, HepG2, 48 h): 95.7 ± 1.13 µM
- IC50 (Leukemia Cancer HL60): 42.55 ± 0.22 µM
- IC50 (Breast Cancer MCF-7): 29.3 ± 1.02 µM

SMILES: O=C(O)/C=C/c1ccccc1 [Compound 6, cinnamic acid]
- IC50 (Lung Cancer A549): 27.6 ± 1.95 µM
- IC50 (Liver Cancer HepG2; Homo sapiens, HepG2, 48 h): 36.58 ± 0.19 µM
- IC50 (Leukemia Cancer HL60): 88.21 ± 0.51 µM
- IC50 (Breast Cancer MCF-7): 28.6 ± 0.91 µM

SMILES: Cc1cc(=O)oc2cc(OC(=O)/C=C/c3ccccc3)ccc12 [Compound 8a, (2E)-4-Methyl-2-oxo-2H-chromen-7-yl Cinnamate]
- IC50 (Lung Cancer A549): 19.6 ± 0.89 µM
- IC50 (Liver Cancer HepG2; 48 h): 75.2 ± 1.39 µM
- melting point: 96 °C
- IC50 (Leukemia Cancer HL60): 34.8 ± 0.64 µM
- IC50 (Breast Cancer MCF-7): 39.3 ± 1.69 µM

SMILES: Cc1c(Br)c(=O)oc2cc(OC(=O)/C=C/c3ccccc3)ccc12 [Compound 8c, (2E)-3-bromo-4-methyl-2-oxo-2H-chromen-7-yl cinnamate]
- IC50 (Lung Cancer A549): 24.3 ± 0.37 µM
- IC50 (Liver Cancer HepG2; Homo sapiens, HepG2, 48 h): 17.4 ± 0.19 µM
- IC50 (Normal Liver THLE2): 124 ± 2.12 µM
- melting point: 170 °C
- IC50 (Leukemia Cancer HL60): 48.1 ± 0.88 µM
- IC50 (Breast Cancer MCF-7): 67.3 ± 2.03 µM

SMILES: C/C(=N\NC(=O)COc1ccc2c(C)cc(=O)oc2c1)c1ccc(Cl)cc1 [III]
- IC50 against HepG2 (HepG2 [1]): 2.84 ± 0.48 µg/mL (≈ 7.38 µM)

SMILES: Cc1cc(=O)oc2cc(OCC(=O)N/N=C/c3ccc(Br)cc3)ccc12 [IV]
- IC50 against HepG2 (HepG2 [1]): 4.67 ± 0.78 µg/mL (≈ 11.2 µM)

SMILES: CN[C@@H]1C[C@H]2O[C@@](C)([C@@H]1OC)n1c3ccccc3c3c4c(c5c6ccccc6n2c5c31)C(=O)NC4 [Staurosporine, reference compound]
- IC50 (Lung Cancer A549): 3.7 ± 0.09 µM
- IC50 (Breast Cancer MCF-7): 3.06 ± 0.42 µM

SMILES: CC(=O)c1cc2c(C)cc(=O)oc2cc1OCCN1CCOCC1 [VI]
- GI, colon cancer HCC-2998 (colon cancer HCC-2998): 341.4 µM
- GI, leukemia CCRF-CEM (leukemia CCRF-CEM): 627.1 µM
- GI, non-small-cell lung cancer HOP-92 [2]: 237.8 µM

SMILES: Cc1cc(=O)oc2cc(OC(C)/C=C/C3=CC(=O)C(C)(C)O3)ccc12 (centres unmarked) [V]
- GI50 [3]: 500 ± 20 nM

SMILES: O=C/C=C/c1ccccc1 [cinnamaldehyde]
- IC50 (HepG2 [4]): 9.76 ± 0.67 µM

SMILES: COc1cccc2c1C(=O)c1c(O)c3c(c(O)c1C2=O)C[C@@](O)(C(=O)CO)C[C@@H]3O[C@H]1C[C@H](N)[C@H](O)[C@H](C)O1 [doxorubicin]
- IC50 against HepG2 (HepG2 [1]): 2.11 ± 0.13 µg/mL (≈ 3.88 µM)
